Common to all, as to type: physicochemical
Series [1] is described as follows: Spiking study with free fatty acids and aluminum, visible particles by Seidenader (Table 4A). Conditions: Seidenader results.
Method: A 100 ppm aluminum stock solution was prepared from aluminum chloride hexahydrate in 20 mM histidine acetate pH 5.5. The actual concentration of aluminum was determined by inductively-coupled plasma mass spectrometry (ICP-MS). This stock solution was then diluted to 10 ppm Al^3+ and sterile-filtered through a 0.22 μm porosity filter cartridge (Sterivex-GV, Millipore).
All vials were sealed with 20 mm teflonized injection stoppers (D777-1, Daikyo) and aluminum crimp caps and homogenized on a MaxQ™ 4000 Benchtop Orbital Shaker (Thermo Scientific™, Waltham, Mass., USA) for 1 hour at 25° C.
LAMA-10 only comprised polysorbate 20 and was used for the preparation of negative controls. All samples were prepared in triplicates.
Samples were stored at 5° C. and the formation of visible particles was assessed for up to 28 days using a black/white and a Seidenader V 90-T instrument (Seidenader Maschinenbau GmbH, Markt Schwaben, DE) as described above.
Samples were analyzed for the presence of visible particles after storage at 2-8° C. for 0, 1 day, 7 days and 28 days using the (A) Seidenader and (B) E/P box.
Series [2] is described as follows: FFA particle nucleation by DLS: interaction of bi- and trivalent cations with lauric acid. Conditions: for FFA salt particle formation and growth (DLS): metal ion 0-30 μM, 70 hours, 5° C. How it is done: DLS experiments were performed on DynaPro(R) plate reader (Wyatt, Santa Barbara, Calif.). The DLS plate reader is flushed with nitrogen 5 hours before commencing the measurements and cooled down to 5° C. during the entire duration of the measurements. 200 μL of sample solutions comprising of 20 μg lauric acid (LA) in 20 mM L-Histidine buffer at pH 6.0 supplemented with 6% v/v DMSO, and varying amounts of metal ions (Al^3+, Fe^3, Zn^2+, Mg^2+, Ca^2+, Ni^2+) were mixed in the cuvettes of black glass bottom 96 well plates (Greiner Bio-One GmbH, Frickenhausen, Germany). FFA nucleation and particle growth were measured over 40-70 hours using a 633 nm laser and a backscatter detection system at 158°. The hydrodynamic particle radius (rH) was determined by fitting a cumulant fit to the obtained auto-correlation function. […] The laser power was adjusted before each measurement sequence and kept constant during the entire measurement. The attenuation level was set to zero for all measurements in order to collect the maximum amount of scattered light. Aluminium (Al), Iron (Fe), Zink (Zn), Magnesium (Mg), Calcium (Ca) and Nickel (Ni) stock solutions were prepared at 4 mM in Milli-Q water pH 2.5 from their respective salts and stored at 2-8° C. until used. Diluted sample solutions (100×) were freshly prepared in Milli-Q water pH 2.5. The DLS assay buffer was added to the salt sample solutions to attain metal ion target concentrations of 0, 1, 3, 10 and 30 μM. Particles size (rH) and intensity were measured over a period of 70 h as described above.

Series [3] is described as follows: FFA particle nucleation by DLS: impact of aluminum concentration on particle kinetics. The conditions noted are these: 20 ppb Al; 5° C.; not captured in the 40 hours experiment. The protocol:
DLS experiments were performed on DynaPro(R) plate reader (Wyatt, Santa Barbara, Calif.). The DLS plate reader is flushed with nitrogen 5 hours before commencing the measurements and cooled down to 5° C. during the entire duration of the measurements. 200 μL of sample solutions comprising of 20 μg lauric acid (LA) in 20 mM L-Histidine buffer at pH 6.0 supplemented with 6% v/v DMSO, and varying amounts of metal ions (Al^3+, Fe^3, Zn^2+, Mg^2+, Ca^2+, Ni^2+) were mixed in the cuvettes of black glass bottom 96 well plates (Greiner Bio-One GmbH, Frickenhausen, Germany). FFA nucleation and particle growth were measured over 40-70 hours using a 633 nm laser and a backscatter detection system at 158°. The hydrodynamic particle radius (rH) was determined by fitting a cumulant fit to the obtained auto-correlation function. […]
Al sample solutions (100×) in 20 mM Histidine buffer pH 6.0 were prepared from a sterile 50 ppm Al stock solution (20 mM Glycine pH 2.5) and were spiked into the DLS assay buffer at target concentrations of 0, 20, 40, 60 and 100 ppb Al. Particle nucleation and growth was measured over a period of 40 hours as described above.
Quantitative analysis was performed by analyzing the intensity of the scattered laser light of the FFA particles over time by fitting a sigmoidal Boltzmann function to the growth curves. […]

A short description of series [4]: FFA metal nucleation by DLS in presence of DTPA, Fe nucleation study. The protocol: (§1) DLS experiments were performed on DynaPro(R) plate reader (Wyatt, Santa Barbara, Calif.). The DLS plate reader is flushed with nitrogen 5 hours before commencing the measurements and cooled down to 5° C. during the entire duration of the measurements. 200 μL of sample solutions comprising of 20 μg lauric acid (LA) in 20 mM L-Histidine buffer at pH 6.0 supplemented with 6% v/v DMSO, and varying amounts of metal ions (Al^3+, Fe^3, Zn^2+, Mg^2+, Ca^2+, Ni^2+) were mixed in the cuvettes of black glass bottom 96 well plates (Greiner Bio-One GmbH, Frickenhausen, Germany). FFA nucleation and particle growth were measured over 40-70 hours using a 633 nm laser and a backscatter detection system at 158°. The hydrodynamic particle radius (rH) was determined by fitting a cumulant fit to the obtained auto-correlation function. The lower and upper boundary for the cumulant fit was set to lag times τ of 10 μs and 1000 μs respectively. The laser power was adjusted before each measurement sequence and kept constant during the entire measurement. The attenuation level was set to zero for all measurements in order to collect the maximum amount of scattered light.
For the Al nucleation study, a metal ion target concentration of 2 μM was used. […] For the Fe nucleation study, the target concentration of Fe was 4 μM. The final concentration of DTPA was either 0, 0.04, 0.4, 2.0, 4.0 or 40 μM resulting in molar ratios (DTPA:Fe) of 0, 0.01, 0.1, 0.5, 1.0 and 10, respectively. DLS measurements were conducted over 50 hours at 5° C. as described above.

A short description of series [5]: Spiking study with partially degraded polysorbate 20 and aluminum, visible particles by E/P box. The conditions noted are these: 0.05 mM DTPA or 0.005% (w/v) EDTA; 250 ppb aluminum; partially degraded polysorbate below the solubility limit.
Method: Diluted aluminum solutions comprising in 20 mM histidine acetate pH 5.5 were prepared as described above and filled into 20 mL type I borosilicate glass vials (Schott, Mainz, DE). […] Vials were sealed with 20 mm teflonized injection stoppers (D777-1, Daikyo) and aluminum crimp caps and homogenized on a MaxQ™ 4000 Benchtop Orbital Shaker (Thermo Scientific™, Waltham, Mass., USA) for 1 hour at 25° C.
PS20-Std only comprised non-degraded polysorbate 20 and was used for the preparation of negative controls. All samples were prepared in triplicates.
Samples were stored at 5° C. and particle formation was assessed for up to 28 days by visual inspection using a black/white panel according Ph.
Samples were visually inspected (E/P box) for the presence of visible particles after incubation for 0, 1 day, 7 days and 28 days at 2-8° C.
Series [6] can be described thus: FFA metal nucleation by DLS in presence of DTPA and real glass leachables. The conditions noted are these: lauric acid and real glass leachables. The protocol: as §1
Representative glass leachables solutions were prepared according to a procedure disclosed in Allmendinger et al. (Allmendinger et al. 2021). […]

A short description of series [7]: Spiking study with different PS20 and PS80 grades, aluminum and DTPA, visible particles by E/P (Table 10). The conditions noted are these: 50 μM DTPA, 250 ppb aluminum, all grades of PS. How it is done:
(§2) Super refined (SR) PS20 and PS80, high purity (HP) PS20 and PS80, as well as pure oleic acid (POA) PS80 were enzymatically hydrolyzed by 10% using immobilized enzymes (Graf et al. 2020) (mucor miehei lipase (MML), Candida antarctica lipase (CAL) and Candida antarctica lipase B (CALB)). […] Diluted aluminum solutions comprising in 20 mM histidine acetate pH 5.5 were prepared as described above and filled into 20 mL type I borosilicate glass vials (Schott, Mainz, DE). Samples containing either 0 or 250 ppb of aluminum (Al^3) were spiked with different PS stock solutions (HP PS20, SR PS20, HP PS80, SR PS80, POA PS80; degradation level of 0 or 10%). In addition, samples containing 250 ppb aluminum were supplemented with 0.05 mM diethylenetriaminepentaacetic acid (DTPA) prior spiking with partially degraded PS. Vials were sealed with 20 mm teflonized injection stoppers (D777-1, Daikyo) and aluminum crimp caps and homogenized on a MaxQTM 4000 Benchtop Orbital Shaker (Thermo ScientificTM, Waltham, Mass., USA) for 1 hour at 25° C. […] Different grades of non-degraded polysorbate 20 and 80 served as negative controls. All samples were prepared in triplicates. Samples were stored at 5° C. and particle formation was assessed for up to 22 days by visual inspection using a black/white panel according Ph. Eur. 2.9.20. and enhanced visual inspection ([…] instrument) as described above.

The nature of series [8]: Spiking study with different PS20 and PS80 grades, aluminum and DTPA, visible particles by Seidenader (Table 11). Conditions: DTPA, 250 ppb aluminum, independent of PS grade or enzyme. How it is done: as §2
The nature of series [9]: Solubility of free fatty acids in histidine acetate buffer pH 5.5, visible particles by Seidenader. The conditions noted are these: kinetic from dmso stock.
Method: In brief, lauric acid (“LA”. Sigma-Aldrich/Merck, Darmstadt, DE) and myristic acid (“MA”, Sigma-Aldrich/Merck, Darmstadt, DE) were suspended in PS20 HP (Croda, Edison, N.J., USA) and stirred (150 rpm) for 30 min at 60° C. until both FFAs were fully dissolved. Solutions were diluted 1:5 with pre-warmed (60° C.) water for injection (WFI) and immediately filtered through 0.22 μm PVDF Steriflip filters (Merck Millipore, Darmstadt, DE). The concentration of LA and MA in FFA stock solutions was verified by LC-MS as described by Honemann et al. (Honemann et al. 2019) LA/MA/PS20 stock solutions were spiked into 20 mM histidine acetate buffer pH 5.5 (1:500 dilution, n=3) and homogenized on a MaxQ™ 4000 Benchtop Orbital Shaker (Thermo Scientific™, Waltham, Mass., USA) for 1 hour at 25° C. Samples were stored at 5° C. and analyzed for visible particles after 0, 1, 7 and 28 days using a black/white panel according Ph. Eur. 2.9.20 (European Directorate for the Quality of Medicines) and a Seidenader V 90-T instrument (Seidenader Maschinenbau GmbH, Markt Schwaben, DE). […]
Free fatty acid (FFA) stock solutions of lauric acid (LA) and myristic acid (MA) were spiked into 20 mM histidine acetate buffer pH 5.5 (n=3). Samples were analyzed for the presence of visible particles after incubation at 2-8° C. for 0, 1 day, 7 days and 28 days using the (A) Seidenader and (B) E/P box.

Where two headings read alike, the source gives them in different places.

Regarding `[Al+3]` [Al], the “Trace amount of aluminum sufficient to complex free fatty acids and form visible particles” value in series [1] is 10 ppb. In [2], the “FFA salt particle formation and growth (DLS)” value was “particle formation and growth”. Further, the “Inflection point of the sigmoidal curve fit of scattering intensity” value in [3] is “around 65 hours”.
As for `[Ca+2]` [Ca], the “FFA salt particle formation and growth (DLS)” value in series [2] was “did not lead to FFA salt particle formation or growth”.
In the case of `O=C(O)CN(CCN(CC(=O)O)CC(=O)O)CCN(CC(=O)O)CC(=O)O` [DTPA, Diethylenetriaminepentaacetic acid], in series [4] (DTPA to Fe ratio of 0.5), the Particle radius result was “only slightly changed” and the Scattering intensity entry is “significantly decreased”. Moreover, the “Particle formation and growth (DLS)” value in series [4] (equimolar amounts of DTPA, lauric acid and 4 μM Fe) was “complete suppression”. The “Formation of visible FFA particles on addition of chelator” value in series [5] is given as “successfully prevented”. Moreover, in series [6], the “Molar ratio of chelator to Al efficient in mitigating particle formation” value is “at least 1.5”. The “Visible particles in presence of the chelator” value in [7] is “no particles were observed”. Besides, the “Particle formation in presence of the chelator” value in series [8] was “significantly mitigated”.
As to `[Fe+3]` [Fe], in [2] (instant particle formation, no further increase over time), the “Hydrodynamic particle radius rH” value is 50-60 nm. Moreover, the “FFA salt particle formation and growth (DLS)” value in [2] is “particle formation and growth”.
In the case of `[Mg+2]` [Mg], in series [2], the “FFA salt particle formation and growth (DLS)” value is on record as “did not lead to FFA salt particle formation or growth”.
With `[Ni+2]` [Ni], the “FFA salt particle formation and growth (DLS)” value in series [2] is recorded as “did not lead to FFA salt particle formation or growth”.
The same measure, in the same setting: under `[Zn+2]` [Zn] stands “did not lead to FFA salt particle formation or growth”.
Regarding `CCCCCCCCCCCC(=O)O` [lauric acid], the solubility at 28 days in series [9] (20 mM histidine acetate buffer with 0.04% PS20, 5 °C, aqueous with cosolvent or surfactant or cyclodextrin, lauric and myristic acid together, histidine acetate buffer pH 5.5, 0.04% PS20, 2-8° C., 28 days, Seidenader and E/P box, read-out: Solubility limit (concentration at which free fatty acids exceeded the solubility limit)) was less than 12.5 µg/mL.
On to `CCCCCCCCCCCCCC(=O)O` [myristic acid], for which the solubility at 28 days in series [9] (5 °C, pH 5.5, aqueous with cosolvent or surfactant or cyclodextrin) was less than 5 µg/mL.

These data come from US20230233684A1, “USE OF CHELATORS FOR THE PREVENTION OF VISIBLE PARTICLE FORMATION IN PARENTERAL PROTEIN SOLUTIONS” (Hoffmann-La Roche Inc., priority 2020, published 2023).
